{"source": "patent US11090323B2", "about": "“Pharmaceutical composition, methods for treating and uses thereof” (Boehringer Ingelheim International GmbH, priority 2013, dated 2021)", "key": {"renal glucose absorption": {"system": "renal glucose absorption", "test": "PK-PD nonlinear mixed-effects model of empagliflozin exposure vs urinary glucose excretion / renal glucose threshold", "format": "in vivo, human", "description": "Empagliflozin, a selective and potent SGLT2 inhibitor, reduces renal glucose reabsorption by lowering the renal threshold for glucose (RTG) leading to increased urinary glucose excretion (UGE) and decreased plasma glucose (PG) in patients with type 2 diabetes mellitus (T2DM). This analysis aimed to quantify the impact of empagliflozin on RTG by characterizing the relationship between empagliflozin exposure and UGE in patients with T2DM using nonlinear mixed-effects modeling.\nA pharmacokinetic (PK)-pharmacodynamic (PD) model was developed using UGE, PG, PK and estimated glomerular filtration rate (eGFR) data from three Phase I/II trials (N=223; placebo, empagliflozin 1 to 100 mg once daily [QD]). The model assumed that when PG>RTG, UGE increased with increasing PG and eGFR; and when PG≤RTG slight glucose leakage into urine occurred (estimated as fraction reabsorbed [FRAC]). Reabsorption was estimated by a nonlinear function parameterized in terms of maximum reabsorbed glucose concentration (Gmax) and PG concentration to reach half maximum transport (Km). Maximum inhibitory effect (Imax) and half maximal inhibitory concentration (IC50) described inhibition of renal glucose absorption. RTG was calculated as the difference between maximum reabsorption (including drug effect) and KM. The model was evaluated via bootstrap and external predictive check of an empagliflozin renal impairment study."}, "[1]": {"system": "patients with T2DM and RI", "test": "Phase III trial of empagliflozin as add-on to existing therapy in patients with T2DM and renal impairment", "format": "in vivo, human", "experimental": "A Phase III trial investigated the efficacy and safety of empagliflozin (EMPA) as add-on to existing therapy for 52 weeks in patients with T2DM and RI. Patients with mild RI (eGFR [MDRD equation] ≥60 to <90 mL/min/1.73 m^2; n=290; mean age 62.6 years; mean BMI 31.5 kg/m^2) received EMPA 10 or 25 mg qd or placebo (PBO). Patients with moderate RI (eGFR ≥30 to <60 mL/min/1.73 m^2; n=374; mean age 64.9 years; mean BMI 30.2 kg/m^2) received EMPA 25 mg qd or PBO. The primary endpoint was change from baseline in HbA1c at week 24. Exploratory endpoints included changes from baseline in fasting plasma glucose (FPG), weight and blood pressure (BP) at week 24 (FIG. 1)."}, "[2]": {"system": "patients with T2DM and CKD stage 3A, 3B and 4", "test": "Phase III trial of empagliflozin as add-on to existing therapy in patients with T2DM and CKD stage 3A, 3B and 4", "format": "in vivo, human", "details": "EMPA 25 mg; for AEs consistent with urinary tract infection, patients / AEs consistent with volume depletion, patients / adverse events (AEs) reported, patients: 52 weeks", "experimental": "A Phase III trial investigated the efficacy and safety of empagliflozin (EMPA) as add-on to existing therapy for 52 weeks in patients with T2DM and CKD stage 3A, 3B and 4. Patients with CKD stage 3A (eGFR [MDRD equation] ≥45 to <60 ml/min/1.73 m^2; n=180; mean [SD] age 64.5 [8.0] years; mean [SD] BMI 30.5 [5.2] kg/m^2), CKD stage 3B (eGFR ≥30 to <45 ml/min/1.73 m^2; n=194; mean [SD] age 65.2 [9.0] years; mean [SD] BMI 30.0 [5.4] kg/m^2) or CKD stage 4 (eGFR ≥15 to <30 ml/min/1.73 m^2; n=74; mean [SD] age 64.1 [11.1] years; mean [SD] BMI 30.4 [5.6] kg/m^2) received EMPA 25 mg qd or PBO for 52 weeks. In exploratory analyses, we assessed the long-term efficacy and safety of EMPA, including changes from baseline in HbA1c, fasting plasma glucose (FPG), weight and systolic and diastolic blood pressure (SBP and DBP) at week 52 (FIG. 7)."}, "the diabetic": {"system": "the diabetic", "details": "metformin on its own; cited from earlier work"}}, "data": [{"smiles": "OC[C@H]1O[C@@H](c2ccc(Cl)c(Cc3ccc(O[C@H]4CCOC4)cc3)c2)[C@H](O)[C@@H](O)[C@@H]1O", "note": "[empagliflozin, 1-chloro-4-(β-D-glucopyranos-1-yl)-2-[4-((S)-tetrahydrofuran-3-yloxy)-benzyl]benzene]", "values": [{"measurement": "IC50", "setting": "renal glucose absorption; Homo sapiens, model parameter estimate, three Phase I/II trials, N=223, read-out: IC50, half maximal inhibitory concentration for renal glucose absorption (95% CI)", "result": 5.28, "unit": "nM"}, {"measurement": "RTG (renal threshold for glucose)", "setting": "renal glucose absorption; dose 1 mg", "result": 100.5, "unit": "mg/dL"}, {"measurement": "RTG (renal threshold for glucose)", "setting": "renal glucose absorption; dose 5 mg", "result": 43.8, "unit": "mg/dL"}, {"measurement": "RTG (renal threshold for glucose)", "setting": "renal glucose absorption; dose 10 mg", "result": 33.1, "unit": "mg/dL"}, {"measurement": "RTG (renal threshold for glucose)", "setting": "renal glucose absorption; dose 25 mg", "result": 26.0, "unit": "mg/dL"}, {"measurement": "Imax, maximum inhibitory effect on renal glucose absorption (95% CI)", "setting": "renal glucose absorption; model parameter estimate, three Phase I/II trials, N=223", "result": "0.559 (0.545, 0.607)"}, {"measurement": "AEs consistent with genital infection, patients", "setting": "[1]; EMPA 10 mg qd", "result": 6.1, "unit": "%"}, {"measurement": "AEs consistent with urinary tract infection, patients", "setting": "[1]; EMPA 10 mg qd", "result": 10.2, "unit": "%"}, {"measurement": "Hypoglycemia (plasma glucose ≤70 mg/dL and/or requiring assistance), patients", "setting": "[1]; EMPA 10 mg qd", "result": 23.5, "unit": "%"}, {"measurement": "adverse events (AEs) reported, patients", "setting": "[1]; EMPA 10 mg qd, week 24, all patients", "result": 79.6, "unit": "%"}, {"measurement": "AEs consistent with genital infection, patients", "setting": "[1]; EMPA 25 mg qd", "result": 2.5, "unit": "%"}, {"measurement": "AEs consistent with urinary tract infection, patients", "setting": "[1]; EMPA 25 mg qd", "result": 9.0, "unit": "%"}, {"measurement": "Hypoglycemia (plasma glucose ≤70 mg/dL and/or requiring assistance), patients", "setting": "[1]; EMPA 25 mg qd", "result": 22.1, "unit": "%"}, {"measurement": "adverse events (AEs) reported, patients", "setting": "[1]; EMPA 25 mg qd, week 24, all patients incl. exploratory severe RI group", "result": 75.4, "unit": "%"}, {"measurement": "difference to placebo for the adjusted mean change in HbA1c from baseline", "setting": "[1]; Week 24, moderate A renal impairment", "result": "−0.46", "unit": "%"}, {"measurement": "difference to placebo for the adjusted mean change in HbA1c from baseline", "setting": "[1]; Week 24, moderate B renal impairment", "result": "−0.39", "unit": "%"}, {"measurement": "tolerability", "setting": "[1]; patients with T2DM and mild or moderate RI", "result": "well tolerated"}, {"measurement": "BP", "setting": "[1]; week 24, further analyses", "result": "significant reductions"}, {"measurement": "FPG", "setting": "[1]; week 24, further analyses", "result": "significant reductions"}, {"measurement": "weight", "setting": "[1]; week 24, further analyses", "result": "significant reductions"}, {"measurement": "HbA1c vs PBO", "setting": "[1]; week 24, mild or moderate RI", "result": "significantly reduced"}, {"measurement": "AEs consistent with urinary tract infection, patients", "setting": "[2]; CKD stage 3A", "result": 16.5, "unit": "%"}, {"measurement": "AEs consistent with volume depletion, patients", "setting": "[2]; CKD stage 3A", "result": 4.4, "unit": "%"}, {"measurement": "adverse events (AEs) reported, patients", "setting": "[2]; CKD stage 3A", "result": 86.8, "unit": "%"}, {"measurement": "AEs consistent with urinary tract infection, patients", "setting": "[2]; CKD stage 3B", "result": 16.7, "unit": "%"}, {"measurement": "AEs consistent with volume depletion, patients", "setting": "[2]; CKD stage 3B", "result": 3.1, "unit": "%"}, {"measurement": "adverse events (AEs) reported, patients", "setting": "[2]; CKD stage 3B", "result": 80.2, "unit": "%"}, {"measurement": "AEs consistent with urinary tract infection, patients", "setting": "[2]; CKD stage 4", "result": 18.9, "unit": "%"}, {"measurement": "AEs consistent with volume depletion, patients", "setting": "[2]; CKD stage 4", "result": 5.4, "unit": "%"}, {"measurement": "adverse events (AEs) reported, patients", "setting": "[2]; CKD stage 4", "result": 91.9, "unit": "%"}, {"measurement": "DBP", "setting": "[2]; week 52, CKD stage 3A", "result": "significantly reduced"}, {"measurement": "FPG", "setting": "[2]; week 52, CKD stage 3A", "result": "significantly reduced"}, {"measurement": "HbA1c vs PBO", "setting": "[2]; week 52, CKD stage 3A", "result": "significantly reduced"}, {"measurement": "SBP", "setting": "[2]; week 52, CKD stage 3A", "result": "significantly reduced"}, {"measurement": "weight", "setting": "[2]; week 52, CKD stage 3A", "result": "significantly reduced"}, {"measurement": "FPG", "setting": "[2]; week 52, CKD stage 3B", "result": "significantly reduced"}, {"measurement": "HbA1c vs PBO", "setting": "[2]; week 52, CKD stage 3B", "result": "significantly reduced"}, {"measurement": "weight", "setting": "[2]; week 52, CKD stage 3B", "result": "significantly reduced"}, {"measurement": "BP", "setting": "[2]; week 52, CKD stage 4", "result": "Reductions"}, {"measurement": "FPG", "setting": "[2]; week 52, CKD stage 4", "result": "Reductions"}, {"measurement": "HbA1c", "setting": "[2]; week 52, CKD stage 4", "result": "did not reduce"}, {"measurement": "weight", "setting": "[2]; week 52, CKD stage 4", "result": "Reductions"}]}, {"smiles": "CN(C)C(=N)N=C(N)N", "note": "[metformin]", "values": [{"measurement": "average improvement in the HbA1c value", "setting": "the diabetic", "result": "1.0-1.5%"}]}]}
